Columns and labels:
Experiment in all cases: Kinase Profiler 10 μM panel
[1] = molecular target: PI3 Kinase (p110a(H1047R)/p85a)(m) (Mus musculus (Mouse), UniProt P42337, H1047R)
Method: (§1) In vitro kinase assays were conducted using Kinase Profiler services provided by Eurofins. The experimental method was as follows: the small molecule compound to be tested (0.001-10 μM), the protein kinase to be tested were incubated with a buffer containing substrate, 10 mM magnesium acetate, and [γ-^33P-ATP], the reaction was started by adding Mg\TPmix, after incubation for a period of time at room temperature, a 3% phosphate solution was added to the buffer to stop the reaction. Subsequently, 10 μL of the reaction mixture was quantitatively pipetted onto P30 filter paper, which was washed three times with 75 mM phosphate solution and then once with methanol. The P30 filter paper was air-dried and scintillation fluid was added for scintillation counting.

[2] = molecular target: Fms(h) (Homo sapiens (Human), UniProt P07333)
Method: as §1

[3] = molecular target: ALK(h) (Homo sapiens (Human), UniProt Q9UM73)
Method: as §1

[4] = molecular target: PI3 Kinase (p120g)(h) (Homo sapiens (Human), UniProt P48736)
Method: as §1

[5] = molecular target: ARK5(h) (Homo sapiens (Human), UniProt O60285)
Method: as §1

[6] = molecular target: PKAcβ(h) (Homo sapiens (Human), UniProt P22694)
Method: as §1

[7] = molecular target: HPK1(h) (Homo sapiens (Human), UniProt Q92918)
Method: as §1

[8] = molecular target: HRI(h) (Homo sapiens (Human), UniProt Q9BQI3)
Method: as §1

[9] = molecular target: ICK(h) (Homo sapiens (Human), UniProt Q9UPZ9)
Method: as §1

[10] = molecular target: IGF-1R(h), activated (Homo sapiens (Human), UniProt P08069)
Method: as §1

[11] = molecular target: B-Raf(h) (Homo sapiens (Human), UniProt P15056)
Method: as §1

[12] = molecular target: IKKß(h) (Homo sapiens (Human), UniProt O14920)
Method: as §1

[13] = molecular target: BTK(R28H)(h) (Homo sapiens (Human), UniProt Q06187, R28H)
Method: as §1

[14] = molecular target: JAK1(h) (Homo sapiens (Human), UniProt P23458)
JAK1(h), sequence (P23458 whole entry): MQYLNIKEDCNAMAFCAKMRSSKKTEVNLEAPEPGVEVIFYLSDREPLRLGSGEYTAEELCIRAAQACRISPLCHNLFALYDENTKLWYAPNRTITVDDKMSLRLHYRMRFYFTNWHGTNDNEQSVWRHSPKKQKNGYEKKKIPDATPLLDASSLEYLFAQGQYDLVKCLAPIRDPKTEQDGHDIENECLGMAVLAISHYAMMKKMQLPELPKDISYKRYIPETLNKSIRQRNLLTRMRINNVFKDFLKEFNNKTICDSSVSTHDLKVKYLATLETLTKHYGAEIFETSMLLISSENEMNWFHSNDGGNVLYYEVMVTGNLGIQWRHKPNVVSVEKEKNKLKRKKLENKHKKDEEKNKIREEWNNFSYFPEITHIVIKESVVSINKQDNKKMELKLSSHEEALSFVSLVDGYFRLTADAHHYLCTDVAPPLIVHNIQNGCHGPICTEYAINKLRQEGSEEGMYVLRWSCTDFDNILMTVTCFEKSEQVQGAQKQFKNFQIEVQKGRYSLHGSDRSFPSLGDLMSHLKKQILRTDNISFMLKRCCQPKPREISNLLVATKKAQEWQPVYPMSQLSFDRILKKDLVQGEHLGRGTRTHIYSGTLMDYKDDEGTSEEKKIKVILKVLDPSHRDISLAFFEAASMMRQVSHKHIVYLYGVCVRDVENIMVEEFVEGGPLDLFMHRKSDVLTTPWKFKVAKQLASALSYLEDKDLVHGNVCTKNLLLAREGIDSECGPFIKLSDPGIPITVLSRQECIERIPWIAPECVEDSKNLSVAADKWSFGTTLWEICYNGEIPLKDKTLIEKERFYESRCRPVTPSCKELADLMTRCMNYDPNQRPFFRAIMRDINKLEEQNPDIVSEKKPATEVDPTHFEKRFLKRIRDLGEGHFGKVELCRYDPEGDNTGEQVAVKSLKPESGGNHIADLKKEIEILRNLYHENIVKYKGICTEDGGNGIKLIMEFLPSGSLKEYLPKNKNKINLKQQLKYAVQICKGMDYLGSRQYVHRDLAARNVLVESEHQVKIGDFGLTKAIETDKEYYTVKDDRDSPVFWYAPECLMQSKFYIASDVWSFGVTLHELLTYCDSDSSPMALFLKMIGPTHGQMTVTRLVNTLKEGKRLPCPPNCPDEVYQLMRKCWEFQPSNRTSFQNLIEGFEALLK
Method: as §1

[15] = molecular target: CaMKIβ(h) (Homo sapiens (Human), UniProt Q6P2M8)
CaMKIβ(h), sequence (Q6P2M8 whole entry): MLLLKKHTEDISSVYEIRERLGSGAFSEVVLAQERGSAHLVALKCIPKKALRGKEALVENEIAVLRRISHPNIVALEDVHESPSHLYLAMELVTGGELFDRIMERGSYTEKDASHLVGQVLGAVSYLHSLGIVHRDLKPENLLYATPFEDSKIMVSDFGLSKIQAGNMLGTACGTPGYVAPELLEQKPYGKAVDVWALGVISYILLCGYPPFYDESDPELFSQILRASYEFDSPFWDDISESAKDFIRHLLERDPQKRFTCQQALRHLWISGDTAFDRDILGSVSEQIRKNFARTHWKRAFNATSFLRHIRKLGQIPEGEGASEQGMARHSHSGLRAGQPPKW
Method: as §1

[16] = molecular target: Plk3(h) (Homo sapiens (Human), UniProt Q9H4B4)
Method: as §1

[17] = molecular target: CaMKIγ(h) (Homo sapiens (Human), UniProt Q96NX5)
Method: as §1

[18] = molecular target: KDR(h) (Homo sapiens (Human), UniProt P35968)
Method: as §1

[19] = molecular target: Rsk1(h) (Homo sapiens (Human), UniProt Q15418)
Method: as §1

[20] = molecular target: Rsk2(h) (Homo sapiens (Human), UniProt P51812)
Method: as §1

[21] = molecular target: SBK1(h) (Homo sapiens (Human), UniProt Q52WX2)
Method: as §1

[22] = molecular target: SLK(h) (Homo sapiens (Human), UniProt Q9H2G2)
Method: as §1

[23] = molecular target: CK2α2(h) (Homo sapiens (Human), UniProt P19784)
Method: as §1

[24] = molecular target: MSK1(h) (Homo sapiens (Human), UniProt O75582)
MSK1(h), sequence (O75582 whole entry): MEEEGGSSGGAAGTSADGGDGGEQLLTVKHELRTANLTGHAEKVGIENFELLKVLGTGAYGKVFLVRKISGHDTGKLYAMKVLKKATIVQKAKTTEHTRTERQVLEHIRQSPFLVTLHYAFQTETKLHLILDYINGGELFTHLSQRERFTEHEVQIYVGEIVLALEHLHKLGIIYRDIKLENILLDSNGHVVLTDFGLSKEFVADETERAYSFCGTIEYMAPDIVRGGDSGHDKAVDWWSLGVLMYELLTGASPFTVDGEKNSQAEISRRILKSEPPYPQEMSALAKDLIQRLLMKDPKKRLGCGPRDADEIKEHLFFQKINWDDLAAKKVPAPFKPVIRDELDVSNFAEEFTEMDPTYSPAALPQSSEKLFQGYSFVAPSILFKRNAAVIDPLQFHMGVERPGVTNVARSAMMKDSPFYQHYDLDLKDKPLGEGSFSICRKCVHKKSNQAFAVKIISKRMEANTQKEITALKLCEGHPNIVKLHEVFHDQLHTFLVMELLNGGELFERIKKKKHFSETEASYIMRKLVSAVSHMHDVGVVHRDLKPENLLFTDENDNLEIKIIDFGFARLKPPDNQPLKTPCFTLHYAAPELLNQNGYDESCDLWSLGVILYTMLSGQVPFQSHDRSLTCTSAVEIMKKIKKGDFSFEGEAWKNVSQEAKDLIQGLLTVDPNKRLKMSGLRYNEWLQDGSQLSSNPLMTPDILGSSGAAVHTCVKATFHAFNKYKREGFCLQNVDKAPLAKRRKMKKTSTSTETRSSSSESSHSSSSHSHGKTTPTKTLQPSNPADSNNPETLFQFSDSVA
Method: as §1

[25] = molecular target: MSSK1(h) (Homo sapiens (Human), UniProt Q9UPE1)
Method: as §1

[26] = molecular target: MST3(h) (Homo sapiens (Human), UniProt Q9Y6E0)
[27] = molecular target: DCAMKL3(h) (Homo sapiens (Human), UniProt Q9C098)
[28] = molecular target: MYO3B(h) (Homo sapiens (Human), UniProt Q8WXR4)
MYO3B(h), sequence (Q8WXR4 whole entry): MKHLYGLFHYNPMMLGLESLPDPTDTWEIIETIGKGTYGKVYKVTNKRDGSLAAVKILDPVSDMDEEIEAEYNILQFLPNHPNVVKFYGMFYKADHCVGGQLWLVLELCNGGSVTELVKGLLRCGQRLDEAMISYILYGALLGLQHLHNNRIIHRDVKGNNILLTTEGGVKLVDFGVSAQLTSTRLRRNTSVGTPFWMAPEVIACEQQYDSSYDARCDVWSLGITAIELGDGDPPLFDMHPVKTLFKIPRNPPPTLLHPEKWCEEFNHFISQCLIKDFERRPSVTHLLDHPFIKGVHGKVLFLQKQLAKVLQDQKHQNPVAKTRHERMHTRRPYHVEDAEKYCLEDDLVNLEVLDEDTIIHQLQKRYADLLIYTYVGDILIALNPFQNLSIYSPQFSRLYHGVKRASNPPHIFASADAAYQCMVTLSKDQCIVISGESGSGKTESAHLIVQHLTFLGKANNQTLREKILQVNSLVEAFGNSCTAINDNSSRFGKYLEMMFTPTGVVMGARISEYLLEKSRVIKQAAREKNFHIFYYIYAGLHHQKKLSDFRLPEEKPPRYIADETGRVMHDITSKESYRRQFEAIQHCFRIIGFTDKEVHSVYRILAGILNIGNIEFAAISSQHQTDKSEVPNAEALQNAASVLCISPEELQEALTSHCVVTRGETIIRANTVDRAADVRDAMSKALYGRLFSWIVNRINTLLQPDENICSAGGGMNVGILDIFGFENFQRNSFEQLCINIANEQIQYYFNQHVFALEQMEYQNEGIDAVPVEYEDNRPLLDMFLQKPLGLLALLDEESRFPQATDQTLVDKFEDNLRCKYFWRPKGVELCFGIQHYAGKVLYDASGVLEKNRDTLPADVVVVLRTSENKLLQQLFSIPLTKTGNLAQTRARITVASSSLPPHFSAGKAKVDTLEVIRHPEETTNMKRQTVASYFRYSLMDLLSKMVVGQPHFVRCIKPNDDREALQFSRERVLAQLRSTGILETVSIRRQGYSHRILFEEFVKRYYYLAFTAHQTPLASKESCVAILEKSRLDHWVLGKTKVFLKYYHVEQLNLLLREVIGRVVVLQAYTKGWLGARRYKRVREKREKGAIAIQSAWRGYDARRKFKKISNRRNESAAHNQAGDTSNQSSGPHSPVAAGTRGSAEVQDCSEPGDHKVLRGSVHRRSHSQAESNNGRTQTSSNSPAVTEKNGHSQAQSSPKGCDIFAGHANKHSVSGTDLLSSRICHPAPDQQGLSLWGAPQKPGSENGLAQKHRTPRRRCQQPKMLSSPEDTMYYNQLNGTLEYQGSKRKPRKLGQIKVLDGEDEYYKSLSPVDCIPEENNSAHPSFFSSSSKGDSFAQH
Method: as §1

[29] = molecular target: DYRK1B(h) (Homo sapiens (Human), UniProt Q9Y463)
Method: as §1

[30] = molecular target: eEF-2K(h) (Homo sapiens (Human), UniProt O00418)
Method: as §1

[31] = molecular target: EGFR(L861Q)(h) (Homo sapiens (Human), UniProt P00533, L861Q)
Method: as §1

[32] = molecular target: PAK3(h) (Homo sapiens (Human), UniProt O75914)
Method: as §1

[33] = molecular target: EphB2(h) (Homo sapiens (Human), UniProt P29323)
Method: as §1

[34] = molecular target: FGFR2(h) (Homo sapiens (Human), UniProt P21802)
FGFR2(h), sequence (P21802 22-821): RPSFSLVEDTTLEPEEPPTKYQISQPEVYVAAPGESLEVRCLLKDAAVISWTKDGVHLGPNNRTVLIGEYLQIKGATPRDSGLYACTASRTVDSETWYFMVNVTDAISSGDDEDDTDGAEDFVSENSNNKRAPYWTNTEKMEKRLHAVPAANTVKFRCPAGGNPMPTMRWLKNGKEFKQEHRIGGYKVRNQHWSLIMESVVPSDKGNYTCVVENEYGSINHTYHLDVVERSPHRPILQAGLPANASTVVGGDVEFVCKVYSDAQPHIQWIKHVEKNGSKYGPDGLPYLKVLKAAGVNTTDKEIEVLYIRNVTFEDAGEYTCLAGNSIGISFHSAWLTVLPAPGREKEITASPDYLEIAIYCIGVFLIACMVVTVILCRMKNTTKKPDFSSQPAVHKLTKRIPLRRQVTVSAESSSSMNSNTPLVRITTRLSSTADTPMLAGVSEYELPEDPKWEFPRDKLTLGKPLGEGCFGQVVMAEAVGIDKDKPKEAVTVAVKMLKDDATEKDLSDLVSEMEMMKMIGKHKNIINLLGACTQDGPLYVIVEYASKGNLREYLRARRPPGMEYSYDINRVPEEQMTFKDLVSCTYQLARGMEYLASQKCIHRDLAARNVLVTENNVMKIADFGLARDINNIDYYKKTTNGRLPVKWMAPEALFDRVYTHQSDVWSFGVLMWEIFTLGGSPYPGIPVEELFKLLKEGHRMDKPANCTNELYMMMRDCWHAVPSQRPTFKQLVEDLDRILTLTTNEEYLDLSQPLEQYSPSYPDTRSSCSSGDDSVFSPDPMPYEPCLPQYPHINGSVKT
Method: as §1

ARK5(h), sequence (O60285 whole entry): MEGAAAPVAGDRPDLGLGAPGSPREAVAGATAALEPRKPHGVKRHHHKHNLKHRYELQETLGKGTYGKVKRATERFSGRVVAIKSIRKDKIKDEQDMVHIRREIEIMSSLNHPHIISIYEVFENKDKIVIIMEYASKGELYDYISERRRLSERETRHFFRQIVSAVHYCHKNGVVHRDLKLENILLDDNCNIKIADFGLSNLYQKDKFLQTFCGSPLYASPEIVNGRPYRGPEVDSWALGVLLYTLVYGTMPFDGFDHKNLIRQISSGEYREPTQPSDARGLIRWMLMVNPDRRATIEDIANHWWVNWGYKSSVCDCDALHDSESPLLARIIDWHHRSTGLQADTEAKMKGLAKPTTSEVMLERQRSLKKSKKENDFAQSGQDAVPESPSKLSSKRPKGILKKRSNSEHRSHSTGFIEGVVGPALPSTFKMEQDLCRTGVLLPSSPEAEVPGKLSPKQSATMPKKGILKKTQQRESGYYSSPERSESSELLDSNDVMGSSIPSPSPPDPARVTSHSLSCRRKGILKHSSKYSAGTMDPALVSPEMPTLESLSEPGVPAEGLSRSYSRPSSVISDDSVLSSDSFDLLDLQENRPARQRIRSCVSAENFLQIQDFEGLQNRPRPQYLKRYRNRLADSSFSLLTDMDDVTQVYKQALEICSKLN

C[C@H](NC(=O)c1cn(C)c2ccc(-c3ccn4nc(NC(=O)C5CC5)nc4c3)cc12)c1cccc(F)c1 [Compound 94, (S)-5-(2-(cyclopropanecarboxamido)-[1,2,4]triazolo[1,5-a]pyridin-7-yl)-N-(1-(3-fluorophenyl)ethyl)-1-methyl-1H-indole-3-carboxamide]
Inhibition ratio/% [1]: 47%
Inhibition ratio/% [2]: 22%
Inhibition ratio/% [3]: −7%
Inhibition ratio/% [4]: −12%
Inhibition ratio/% [5]: 8%
Inhibition ratio/% [6]: 40%
Inhibition ratio/% [7]: −3%
Inhibition ratio/% [8]: −4%
Inhibition ratio/% [9]: 52%
Inhibition ratio/% [10]: −17%
Inhibition ratio/% [11]: −5%
Inhibition ratio/% ([12]; IKKβ(h)): −3%
Inhibition ratio/% [13]: 77%
Inhibition ratio/% [14]: 52%
Inhibition ratio/% [15]: 31%
Inhibition ratio/% [16]: 12%
Inhibition ratio/% [17]: −13%
Inhibition ratio/% [18]: −12%
Inhibition ratio/% [19]: 41%
Inhibition ratio/% [20]: 4%
Inhibition ratio/% [21]: −19%
Inhibition ratio/% [22]: 15%
Inhibition ratio/% [23]: 25%
Inhibition ratio/% [24]: −20%
Inhibition ratio/% [25]: −12%
Inhibition ratio/% [26]: 33%
Inhibition ratio/% [27]: 33%
Inhibition ratio/% [28]: −18%
Inhibition ratio/% [29]: −1%
Inhibition ratio/% [30]: 26%
Inhibition ratio/% [31]: 75%
Inhibition ratio/% [32]: −19%
Inhibition ratio/% [33]: 48%
Inhibition ratio/% [34]: −13%

C[C@H](NC(=O)c1c[nH]c2ccc(-c3ccc4nc(NC(=O)C5CC5)sc4c3)cc12)c1cccc(F)c1 [Compound 34, (S)-5-(2-(cyclopropanecarboxamido)benzo[d]thiazol-6-yl)-N-(1-(3-fluorophenyl)ethyl)-1H-indole-3-carboxamide]
Inhibition ratio [1]: 17%
Inhibition ratio [2]: 21%
Inhibition ratio [3]: 48%
Inhibition ratio [4]: 35%
Inhibition ratio [5]: 43%
Inhibition ratio [6]: −4%
Inhibition ratio [7]: 75%
Inhibition ratio [8]: −3%
Inhibition ratio [9]: 7%
Inhibition ratio [10]: 21%
Inhibition ratio [11]: 20%
Inhibition ratio ([12]; IKKß(h)): 12%
Inhibition ratio [13]: 1%
Inhibition ratio [14]: 26%
Inhibition ratio [15]: 11%
Inhibition ratio [16]: 9%
Inhibition ratio [17]: 7%
Inhibition ratio [18]: 83%
Inhibition ratio [19]: 37%
Inhibition ratio [20]: 1%
Inhibition ratio [21]: −12%
Inhibition ratio [22]: 50%
Inhibition ratio [23]: 23%
Inhibition ratio [24]: 53%
Inhibition ratio [25]: 24%
Inhibition ratio [26]: 7%
Inhibition ratio [27]: 8%
Inhibition ratio [28]: 16%
Inhibition ratio [29]: 12%
Inhibition ratio [30]: −41%
Inhibition ratio [31]: 49%
Inhibition ratio [32]: −1%
Inhibition ratio [33]: 42%
Inhibition ratio [34]: 63%
